Biological target: T1, α4β7 integrin (Homo sapiens, UniProt P13612+P26010)
T1 construct: monitoring the capture of α4β7 integrin expressing cells on a recombinant MadCAM-1 extracellular domain-coated plate; endogenous in cells; host or cells: RPMI8866 cells
T1 sequence (P13612 34-1032): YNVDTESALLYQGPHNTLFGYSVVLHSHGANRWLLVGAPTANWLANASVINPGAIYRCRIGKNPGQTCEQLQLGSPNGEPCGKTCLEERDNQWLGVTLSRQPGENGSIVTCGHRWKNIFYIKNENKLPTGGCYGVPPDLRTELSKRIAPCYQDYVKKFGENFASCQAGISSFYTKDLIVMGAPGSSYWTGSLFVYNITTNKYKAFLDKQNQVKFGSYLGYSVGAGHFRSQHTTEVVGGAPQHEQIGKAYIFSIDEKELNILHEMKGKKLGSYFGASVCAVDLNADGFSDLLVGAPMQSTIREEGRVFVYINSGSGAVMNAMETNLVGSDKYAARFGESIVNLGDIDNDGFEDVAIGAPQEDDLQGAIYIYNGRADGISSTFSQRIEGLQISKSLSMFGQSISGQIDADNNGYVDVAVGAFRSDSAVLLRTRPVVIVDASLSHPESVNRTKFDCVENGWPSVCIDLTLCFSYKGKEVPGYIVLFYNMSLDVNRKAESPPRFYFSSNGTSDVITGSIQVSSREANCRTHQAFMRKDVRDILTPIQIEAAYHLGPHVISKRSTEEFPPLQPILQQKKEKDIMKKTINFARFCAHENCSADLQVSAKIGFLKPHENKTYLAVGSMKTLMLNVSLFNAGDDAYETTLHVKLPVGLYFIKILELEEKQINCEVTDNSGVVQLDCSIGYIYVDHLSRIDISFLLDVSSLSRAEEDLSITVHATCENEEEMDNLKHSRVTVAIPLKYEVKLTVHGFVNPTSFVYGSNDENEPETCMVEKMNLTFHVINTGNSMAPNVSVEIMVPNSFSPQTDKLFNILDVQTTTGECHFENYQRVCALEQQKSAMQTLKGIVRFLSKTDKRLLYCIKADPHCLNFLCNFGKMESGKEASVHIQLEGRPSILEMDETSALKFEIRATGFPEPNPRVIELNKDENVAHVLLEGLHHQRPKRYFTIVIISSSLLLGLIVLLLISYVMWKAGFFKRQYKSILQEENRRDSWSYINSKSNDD
T1 sequence (P26010 20-798): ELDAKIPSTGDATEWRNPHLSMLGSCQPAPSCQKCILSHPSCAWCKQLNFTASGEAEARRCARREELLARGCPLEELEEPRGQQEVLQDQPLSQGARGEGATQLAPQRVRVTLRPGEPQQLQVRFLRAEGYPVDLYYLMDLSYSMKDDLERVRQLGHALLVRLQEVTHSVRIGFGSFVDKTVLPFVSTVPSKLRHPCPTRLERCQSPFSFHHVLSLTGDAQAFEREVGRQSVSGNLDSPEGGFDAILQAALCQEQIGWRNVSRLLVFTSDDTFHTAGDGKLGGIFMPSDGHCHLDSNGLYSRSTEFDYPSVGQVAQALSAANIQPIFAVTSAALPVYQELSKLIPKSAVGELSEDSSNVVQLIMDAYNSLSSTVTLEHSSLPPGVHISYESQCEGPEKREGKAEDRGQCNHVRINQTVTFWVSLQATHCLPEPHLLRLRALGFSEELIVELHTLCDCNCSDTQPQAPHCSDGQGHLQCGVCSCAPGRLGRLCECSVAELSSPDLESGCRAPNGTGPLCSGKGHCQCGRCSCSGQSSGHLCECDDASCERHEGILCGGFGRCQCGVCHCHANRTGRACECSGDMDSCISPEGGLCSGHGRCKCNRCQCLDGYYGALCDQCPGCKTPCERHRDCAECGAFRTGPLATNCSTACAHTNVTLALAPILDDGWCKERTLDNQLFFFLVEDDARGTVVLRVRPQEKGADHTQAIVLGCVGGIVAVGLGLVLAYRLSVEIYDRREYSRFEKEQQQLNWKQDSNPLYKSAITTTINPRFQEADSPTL
Test: α4β7 Integrin Cell Capture Assay
Type: cell-based
Settings: capture of α4β7 integrin expressing RPMI8866 cells on recombinant MadCAM-1 extracellular domain-coated plate; DMEM+0.5% FBS+0.5 mM MnCl2; read-out: EC50 α4β7
Protocol: α4β7 Integrin Cell Capture Assay
The potency of inhibitors in preventing α4β7 integrin interaction with MadCAM-1 was measured by monitoring the capture of α4β7 integrin expressing cells on a recombinant MadCAM-1 extracellular domain-coated plate.
384-Well plates (Corning 3702) were coated with MadCAM-1 extracellular domain by dispensing 20 μL of MAdCAM-1 at 1.0 μg/mL per well and incubating overnight at 4° C. The plates were then washed with PBS and blocked with 3% BSA for 2 hours before being washed again.
RPMI8866 cells were spun down and re-suspended in assay medium (DMEM+0.5% FBS+0.5 mM MnCl2) at a density of 0.5×10^6 cells/mL. The cells were then dispensed (60 μL/well) to a 384-well plate (Greiner 781280) that was previously spotted with 60 nL of test compound per well. The plates were incubated at 37° C. for 1 hour. 50 μL of cells were transferred to the blocked, MadCAM-1-coated plates and incubated for 30 minutes at 37° C. 10 μL of 12% glutaraldehyde containing Hoechst 33342 (0.06 mg/mL) was added to the cells (2% glutaraldehyde and 0.01 mg/mL final concentrations). The plates were incubated for 90 minutes at room temperature. The plates were then washed 3 times with 70 μL of PBS per well and imaged on a Cellomics ArrayScan instrument. The cells that were bound to the plate were counted and plotted against the compound concentration to determine the EC50 of the test compounds.

| EC50 [nM] | Structure (SMILES) |
| --- | --- |
| 139 | O=C(N[C@@H](Cc1ccc(-c2c(Cl)cc(F)cc2Cl)c2cccnc12)C(=O)O)c1c(F)cc(N2CCOCC2C(F)(F)F)cc1F (single isomer, unassigned) [Example 6] |
| 356 | Cn1cc(-c2ccc(C[C@H](NC(=O)c3c(Cl)cccc3Cl)C(=O)O)c3ncccc23)c(C(F)(F)F)n1 [Example 17, (S)-2-(2,6-dichlorobenzamido)-3-(5-(1-methyl-3-(trifluoromethyl)-1H-pyrazol-4-yl)quinolin-8-yl)propanoic acid] |
| 45.1 | O=C(N[C@@H](Cc1ccc(-c2nccc(C(F)(F)F)c2Cl)c2cccnc12)C(=O)O)c1c(Cl)cccc1Cl [Example 51, (S)-3-(5-(3-chloro-4-(trifluoromethyl)pyridin-2-yl)quinolin-8-yl)-2-(2,6-dichlorobenzamido)propanoic acid] |
| 57.7 | Cn1ccnc(-c2ccc(C[C@H](NC(=O)c3c(Cl)cccc3Cl)C(=O)O)c3ncccc23)c1=O [Example 27, (S)-2-(2,6-dichlorobenzamido)-3-(5-(4-methyl-3-oxo-3,4-dihydropyrazin-2-yl)quinolin-8-yl)propanoic acid] |
| 374 | O=C(N[C@@H](Cc1ccc(-c2cccc3c2COCC3)c2cccnc12)C(=O)O)c1c(Cl)cccc1Cl [Example 20, (S)-2-(2,6-dichlorobenzamido)-3-(5-(isochroman-8-yl)quinolin-8-yl)propanoic acid] |
| 6.4 | Cc1cc(C)n(C)c(=O)c1-c1ccc(C[C@H](NC(=O)c2c(F)cc(N3CCOC[C@@H]3C(F)(F)F)cc2F)C(=O)O)c2ccccc12 (single isomer, unassigned) [Example 126] |
| 6.6 | Cc1c(-c2ccc(C[C@H](NC(=O)c3c(F)cccc3F)C(=O)O)c3ncccc23)c(=O)n(C)c(=O)n1C (single isomer, unassigned) [Example 81] |
| 8.3 | CC[C@@H](Nc1cc(F)c(C(=O)N[C@@H](Cc2ccc(-c3c(C(F)(F)F)cc(C)n(C)c3=O)c3ccccc23)C(=O)O)c(F)c1)C(F)(F)F (single isomer, unassigned) [Example 134] |
| 135 | O=C(N[C@@H](Cc1ccc(-c2c(Cl)cc(F)cc2Cl)c2nccnc12)C(=O)O)c1c(F)cccc1F [Example 156, (S)-3-(8-(2,6-dichloro-4-fluorophenyl)quinoxalin-5-yl)-2-(2,6-difluorobenzamido)propanoic acid] |
| 0.5 | COc1cc(C)n(C)c(=O)c1-c1ccc(C[C@H](NC(=O)c2c(F)cc(N3CCOC[C@@H]3C(F)(F)F)cc2F)C(=O)O)c2ccccc12 (single isomer, unassigned) [Example 125] |
| 49.5 | O=C(N[C@@H](Cc1ccc(-c2cccc3c2OCCC3)c2cccnc12)C(=O)O)c1c(Cl)cccc1Cl [Example 24, (S)-3-(5-(chroman-8-yl)quinolin-8-yl)-2-(2,6-dichlorobenzamido)propanoic acid] |
| 0.1 | Cc1c(-c2ccc(C[C@H](NC(=O)c3c(F)cc(N4CCOC[C@@H]4C(F)(F)F)cc3F)C(=O)O)c3ncccc23)c(=O)n(C)c2ccc(F)cc12 (single isomer, unassigned) [Example 88] |
| 3.2 | Cn1c(=O)c(-c2ccc(C[C@H](NC(=O)c3c(Cl)cccc3Cl)C(=O)O)c3ncccc23)c(C(F)(F)F)c2ccccc21 (single isomer, unassigned) [Example 62] |
| 17 | Cn1cc(-c2ccc(C[C@H](NC(=O)c3c(F)cccc3F)C(=O)O)c3ncccc23)c(=O)n(C)c1=O [Example 80, (S)-2-(2,6-difluorobenzamido)-3-(5-(1,3-dimethyl-2,4-dioxo-1,2,3,4-tetrahydropyrimidin-5-yl)quinolin-8-yl)propanoic acid] |
| 13.7 | CC[C@@H](Nc1cc(F)c(C(=O)N[C@@H](Cc2ccc(-c3c(C)cc(C)n(C)c3=O)c3ccccc23)C(=O)O)c(F)c1)C(F)(F)F (single isomer, unassigned) [Example 132] |
| 57.7 | O=C(N[C@@H](Cc1ccc(-c2cccc3scnc23)c2cccnc12)C(=O)O)c1c(Cl)cccc1Cl [Example 14, (S)-3-(5-(benzo[d]thiazol-4-yl)quinolin-8-yl)-2-(2,6-dichlorobenzamido) propanoic acid] |
| 12.4 | CCOCc1cc(OC)c(-c2ccc(C[C@H](NC(=O)c3c(F)cccc3F)C(=O)O)c3ncccc23)c(OC)c1 [Example 78, (S)-2-(2,6-difluorobenzamido)-3-(5-(4-(ethoxymethyl)-2,6-dimethoxyphenyl)quinolin-8-yl)propanoic acid] |
| 1.9 | Cc1c(-c2ccc(C[C@H](NC(=O)c3c(F)cccc3F)C(=O)O)c3nccnc23)c(=O)n(C)c2ccc(F)cc12 [Example 159, (S)-2-(2,6-difluorobenzamido)-3-(8-(6-fluoro-1,4-dimethyl-2-oxo-1,2-dihydroquinolin-3-yl)quinoxalin-5-yl)propanoic acid] |
| 23.6 | O=C(N[C@@H](Cc1ccc(-c2nccc(Cl)c2C(F)(F)F)c2cccnc12)C(=O)O)c1c(Cl)cccc1Cl [Example 57, (S)-3-(5-(4-chloro-3-(trifluoromethyl)pyridin-2-yl)quinolin-8-yl)-2-(2,6-dichlorobenzamido)propanoic acid] |
| 1.7 | COc1cccc(OC)c1-c1ccc(C[C@H](NC(=O)c2c(F)cc(NS(=O)(=O)c3ccc(-c4ccnc(F)c4)cc3)cc2F)C(=O)O)c2ncccc12 [Example 101, (S)-2-(2,6-difluoro-4-((4-(2-fluoropyridin-4-yl)phenyl)sulfonamido)benzamido)-3-(5-(2,6-dimethoxyphenyl)quinolin-8-yl)propanoic acid] |
| 152 | COc1c(F)cc(F)cc1-c1ccc(C[C@H](NC(=O)c2c(Cl)cccc2Cl)C(=O)O)c2ncccc12 [Example 42, (S)-2-(2,6-dichlorobenzamido)-3-(5-(3,5-difluoro-2-methoxyphenyl)quinolin-8-yl)propanoic acid] |
| 68.5 | COc1cc(F)c(C)cc1-c1ccc(C[C@H](NC(=O)c2c(Cl)cccc2Cl)C(=O)O)c2ncccc12 [Example 56, (S)-2-(2,6-dichlorobenzamido)-3-(5-(4-fluoro-2-methoxy-5-methylphenyl)quinolin-8-yl)propanoic acid] |
| 3.4 | Cn1c(=O)c(-c2ccc(C[C@H](NC(=O)c3c(Cl)cccc3Cl)C(=O)O)c3ccccc23)cc2ccccc21 [Example 108, (S)-2-(2,6-dichlorobenzamido)-3-(4-(1-methyl-2-oxo-1,2-dihydroquinolin-3-yl)naphthalen-1-yl)propanoic acid] |
